Data as given in PubChem BioAssay AID463229 (Broad Institute, 2010).
Activity calls are given as the source filed them.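 The calls were made as follows: active = compounds raising the signal whose fitted half-maximal concentration is at or below their top tested dose (cut at about 25 µM in these data); inconclusive = flat fit at 30 to 70% activity, or a poor fit; inactive = the rest.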

Test system: INS-1E rat beta cells, no cytokines, CellTiter-Glo ATP, 48 h
Assay: cytokine-free beta-cell viability effect – INS-1E rat cells, ATP luminescence, cherry pick, counter-screen for beta-cell apoptosis protection project, dose response (AID 463229)

SMILES	AC50
C#CCOCCOCCOCCNc1nc(N2CCN(C(=O)CCCCCCCCCCNC(=O)[C@H](CCCCN)n3cc(C)nn3)CC2)nc(N2CCN(C(=O)CCCCCCCCCCNC(=O)[C@H](CCCN=C(N)N)n3cc(C[C@@H](C)CC)nn3)CC2)n1	7.85 µM
CN1/C(=C\C=N\NC(=O)c2ccc(O)cc2)C(C)(C)c2ccccc21	7.5 µM
COc1cccc(/C=N/NC(=O)c2cc3c(OC)ccc(OC)c3[nH]2)c1O	10.7 µM
Cc1ccc(-c2c(C#N)c(N)n3c(nc4ccccc43)c2C#N)cc1	4.1 µM
CCC(=O)NC(c1ccccc1OC)c1ccc2cccnc2c1O (stereo not drawn)	4.29 µM
CCOc1ccc(-n2c(-c3ccccc3)c[n+]3c2CCC3)cc1	1.53 µM
CC(=O)NC(c1ccccc1)c1cc(Cl)c2cccnc2c1O (stereo not drawn)	6.26 µM
C=CCn1nc([N+](=O)[O-])nc1Sc1cccc2cccnc12	6.79 µM
CC[C@H]1CN2CCc3cc(OC)c(OC)cc3[C@@H]2C[C@@H]1C[C@H]1NCCc2cc(OC)c(OC)cc21	9.67 µM
COc1ccccc1NC(=O)Cn1cc(C(=O)c2ccco2)c2ccccc21	8.7 µM
Cc1cc[n+](C(C)C(=O)c2ccc(-c3ccccc3)cc2)cc1 (stereo not drawn)	3.81 µM
COc1ccc(C2/C=C\CN(C(=O)c3ccc(C)cc3)[C@H](Cc3ccccc3)C(=O)N2Cc2ccc(F)cc2)cc1 (stereo partly drawn)	7.33 µM
CCOc1ccc(OCc2ccc(C(=O)N/N=C(\C)c3ccccn3)cc2)cc1	5.09 µM
O=C(/C=C/c1cccc([N+](=O)[O-])c1)c1ccc([N+](=O)[O-])o1	3.95 µM
CC(=O)Nc1sc2c(c1-c1nc3ccccc3s1)CN(C(C)C)CC2	3.79 µM
CC(=O)/C=C1\N(C)c2ccc(C)cc2C1(C)C	7.3 µM
CCC(=O)N1c2ccc(S(=O)(=O)N3CCN(c4ccc([N+](=O)[O-])cc4)CC3)cc2CC1C (stereo not drawn)	6.37 µM
C#CCOCCOCCOCCNc1nc(N2CCN(C(=O)CCCCCCCCCCNC(=O)[C@H]([C@@H](C)CC)n3cc(CCCCN=C(N)N)nn3)CC2)nc(N2CCN(C(=O)CCCCCCCCCCNC(=O)[C@H](CO)n3cc(CCCCCN)nn3)CC2)n1	7.67 µM
O=C(Nc1ccc(Cl)c(Cl)c1)Nc1nnc(CC2=CCCCC2)s1	5.75 µM
CCOc1cc(/C=C2\COc3ccccc3C2=O)cc(Br)c1OCC(=O)N(C)C	11.1 µM
COc1cc(NC(=O)c2ccc([N+](=O)[O-])o2)ccc1NC(=O)c1cccs1	15.2 µM
COc1ccc(S(=O)(=O)Nc2cc(SCC(=O)O)c(O)c3ccccc23)cc1	8.19 µM
CC(C)(C)c1cc(C(=O)N/N=C/c2ccccc2O)n(-c2ccccc2)n1	10.1 µM
COc1ccccc1N1CCN(c2ncc(C(=O)N3CCN(c4cccc(Cl)c4)CC3)c3ccccc23)CC1	4.69 µM
CN(C)c1ccc(/C=C/c2ccc3ccccc3n2)cc1	2.28 µM
COC(=O)c1cccc(NC(=O)Nc2ccc(Cl)c(Cl)c2)c1	10.4 µM

SMILES	AC50
COc1ccc(NC(=O)c2c(Nc3ccccc3)sc(C(=O)c3ccc(F)cc3)c2N)cc1	2.91 µM
Cc1cccc(Nc2nc(NCc3ccco3)c3ccccc3n2)c1	8.03 µM
COc1ccc2nc(Nc3nc(CSc4nc5ccccc5[nH]4)cc(=O)[nH]3)nc(C)c2c1	7.05 µM
COc1ccc(C(=O)N/N=C/c2cc(Br)ccc2O)cc1OC	7.2 µM
Cc1[nH]c2ccccc2c1CN1CCN(c2ccccn2)CC1	5.1 µM
COc1ccc(O)c(/C=N/NC(=O)c2ccc(CSc3nc(C)cc(C)n3)cc2)c1	11.2 µM
COCCn1c(SCC(=O)/C=C2\N(C)c3ccccc3C2(C)C)nnc1-c1ccncc1	13.1 µM
COc1ccc(/C=N/Nc2cc(C)nc3ccc(OC)cc23)c(OC)c1	13.5 µM
Cc1cc(C)nc(SCc2ccc(C(=O)N/N=C/c3cccc(O)c3O)cc2)n1	8.06 µM
CCCCNc1c(-c2ccc(-c3cccc(Cl)c3)cc2)nc2ccccn12	5.83 µM
CC(=O)Nc1ccc(NC(=O)CN(c2cccc([N+](=O)[O-])c2)S(C)(=O)=O)cc1	6.49 µM
COc1cccc(/C=N/Nc2nc3ccccc3n3cnnc23)c1O	7.23 µM
Cc1cccc2sc(NNC(=O)c3ccc(S(=O)(=O)N4CCCC(C)C4)cc3)nc12 (stereo not drawn)	6.74 µM
CCCCOc1ccc(C(=O)NNC(=S)NC(=O)CC)cc1	14.3 µM
CCN1CCN(c2ccc(S(=O)(=O)N3CCCCC3)cc2NC(=O)c2ccc([N+](=O)[O-])s2)CC1	6.94 µM
CCSCCc1nnc(NC(=O)Nc2cccc(C(F)(F)F)c2)s1	4.25 µM
Cc1ccc(-c2nc(NC(=O)c3nn(C)cc3[N+](=O)[O-])sc2C)cc1C	3.43 µM
N#Cc1ccc(NC(=O)Nc2ccc(Cl)cc2)cc1	6.57 µM
COc1cccc(/C=N/Nc2ncnc3scc(-c4ccccc4)c23)c1O	2.02 µM
Cc1ccc(C(C)C)c(OCC(O)CN2CCc3ccccc3C2)c1 (stereo not drawn)	9.7 µM
CCC(=O)NC(c1ccc(C)cc1)c1cc(Cl)c2cccnc2c1O (stereo not drawn)	7.97 µM
Clc1ccc(CSc2ccc(-c3ccccn3)nn2)cc1	6.32 µM
CC(C)(C)CN1CCC(Oc2cccc(C(=O)NCCCOc3cccnc3)c2)CC1	2.13 µM
Cn1c(NN=O)nc2ccccc21	4.08 µM
CCCCCCn1c2c(c(=N)c3c1CCC3)CCC2	1.88 µM
COc1cccc(/C=N/NC(=O)c2[nH]nc3c2CCc2ccccc2-3)c1O	4.25 µM

SMILES	AC50
CCN1/C(=C/C(C)=C/c2sc3ccccc3[n+]2CC)Sc2ccccc21	< 0.195 µM
COc1cc(/C=C/C(=O)c2ccc([N+](=O)[O-])o2)ccc1O	3.91 µM
O=C(Nc1ccc(N2CCN(C(=O)c3ccc(Cl)cc3)CC2)cc1)c1cccnc1	18.7 µM
CCN1C/C(=C/c2cccc([N+](=O)[O-])c2)C(=O)/C(=C/c2cccc([N+](=O)[O-])c2)C1	2.39 µM
CC1(C)CC(=O)C2=C(C1)OC1=C(C(=O)CC(C)(C)C1)C2c1ccc(O)cc1O	7.31 µM
N=c1c2c(n(Cc3ccc(Cl)c(Cl)c3)c3c1CCC3)CCCC2	3.57 µM
O=C(O)c1ccc(S(=O)(=O)/N=C2\C=C(Nc3ccccc3F)C(=O)c3ccccc32)cc1	7.91 µM
O=[N+]([O-])c1ccccc1-c1cc(-c2ccccc2)cc(-c2ccccc2)[n+]1Cc1ccccc1Cl	2.23 µM
Cc1ccc(S(=O)(=O)Nc2ccccc2N(C)S(=O)(=O)c2ccc(C)cc2)cc1	15.6 µM
CCOC(=O)c1c(C)[nH]c(C(=O)N/N=C\c2ccccc2O)c1C	6.52 µM
CCc1nc(N2CCN(C(C)=O)CC2)c2c3c(sc2n1)CC(C(C)(C)C)CC3 (stereo not drawn)	2.79 µM
O=[N+]([O-])c1ccc(O)c(-c2cc(C(F)(F)F)nc(-c3ccccc3)n2)c1	1.59 µM
CC(C)Oc1ccc(S(=O)(=O)N2CCCCC2)cc1NC(=O)CN1CCCC1c1cccs1 (stereo not drawn)	6.59 µM
CCCC(=O)NC(c1ccccc1Cl)c1ccc2cccnc2c1O (stereo not drawn)	2.13 µM
CCn1c(C)c(C)c2cc(C(=O)N3CCc4ccccc4C3)ccc21	3.14 µM
CC(NCC(O)COCCC12CC3CC(CC(C3)C1)C2)c1ccccc1 (stereo not drawn)	8.29 µM
On1onc2c3cc(-c4ccccc4)nc3ccc21	5.23 µM
COc1ccc(NS(=O)(=O)c2ccc(-c3cnc(C4CC4)o3)cc2)cc1OC	6.58 µM
CCCCCc1ccc(OCCCC[n+]2cccc(C)c2)c(CCCCC)c1	2.1 µM
Cc1ccc(S(=O)(=O)/N=C2\C=C(Nc3cccc(C(=O)O)c3)C(=O)c3ccccc32)c(C)c1	7.81 µM
COC(=O)c1ccc2[nH]c3cccc(/C(=C/c4ccccc4)c4ccccc4)c3c2c1	15.7 µM
Cc1ccc(NC(=O)Cn2c(O)c(N=NC(=O)c3cc4ccccc4cc3O)c3ccccc32)cc1	8.15 µM
CC[N+](C)(CC)CCC(c1ccccc1)C1CCCCC1 (stereo not drawn)	> 26 µM (inactive)
CCC(=O)NC(c1cc(Cl)c2cccnc2c1O)C1CC1 (stereo not drawn)	6.34 µM
N#CC(C#N)=NNc1ccc(-n2ccc(C(F)(F)F)n2)cc1	7.8 µM
COc1ccc(Cl)c(Cn2c(NCc3ccco3)nc3c2c(=O)n(C)c(=O)n3C)c1	13.1 µM

SMILES	AC50
CC[N+]1=C(C)C(C)(C)c2cc(C)ccc21	8.15 µM
NS(=O)(=O)c1ccc(N=Nc2ccc(O)c3ncccc23)cc1	8.05 µM
C=C[C@H](Cc1ccccc1)N(Cc1ccccc1)S(=O)(=O)N(Cc1ccccc1)[C@H](C=C)Cc1ccccc1	4.79 µM
C=C1C(=O)O[C@@H]2C[C@@H](C)[C@@H]3C=CC(=O)[C@@]3(C)[C@@H](OC(C)=O)[C@H]12	2.21 µM
CN(C)c1ccc(-c2cc(O)c3ncccc3c2)cc1	26.9 µM
O=C(CC(O)(C(F)(F)F)C(F)(F)F)Nc1ccc(Cl)c(Cl)c1	2.73 µM
CC1(C)CCN2CCC(C)(C)c3c(O)ccc1c32	13.2 µM
CC(=O)Oc1c(C)cc(Cl)cc1C(=O)Nc1ccc([N+](=O)[O-])cc1Cl	1.43 µM
COc1cc(OC)c2cc(C(=O)N/N=C/c3cccc(OC)c3O)[nH]c2c1	15.5 µM
CC(C)(C)OC(=O)NCc1ccc(NC(=O)c2nc[nH]c2C(=O)NCCCCNC(=O)c2[nH]cnc2C(=O)Nc2ccc(CNC(=O)OC(C)(C)C)cc2)cc1	5.34 µM
Oc1ccc(CN2CCc3ccccc3C2)c2cccnc12	3.7 µM
Oc1ccc(COCc2ccccc2)c2cccnc12	4.28 µM
Cc1ccc(NC(=O)CCC(=O)N/N=C/c2ccc([N+](=O)[O-])o2)cc1C	19.8 µM
CCC(=NNC(=O)c1ccc2c(c1)nc(C)n2CC)c1cc(F)ccc1O	9.84 µM
O=C(CSc1nnc(Cn2nnc3ccccc32)o1)N(Cc1ccc(Cl)cc1)c1ccccc1	6.17 µM
COc1cccc(/C=N/Nc2ncnc(Cl)c2N)c1O	4.32 µM
COC(=O)[C@H](CC(C)C)N(Cc1ccccc1)S(=O)(=O)N(Cc1ccccc1)[C@@H](CC(C)C)C(=O)OC	15.5 µM
Cc1cccc(CSC(Nc2ccc(F)cc2)=C(C#N)C#N)c1	5.85 µM
Cc1ccccc1NC(=S)N/N=C/c1ccc(O)cc1O	14.6 µM
NCCCn1c(C(=O)c2cc(Cl)c(N)c(Cl)c2)c2ccc([N+](=O)[O-])cc2[n+]1[O-]	5.34 µM
CC1=C(CO)C(=O)OC([C@@H](C)C2CC[C@H]3C4C[C@H]5O[C@]56[C@@H](O)C=CC(=O)[C@]6(C)C4CC[C@]23C)C1 (stereo partly drawn)	6.2 µM
CN1/C(=C\C(=O)C[n+]2cccc(Br)c2)C(C)(C)c2ccccc21	5.88 µM
CC(=O)c1c(C)[nH]c(C(=O)OCC(=O)Nc2ccc(C)cc2[N+](=O)[O-])c1C	1.6 µM
O=C(c1cc(-c2cccc(Cl)c2)nc2ccccc12)N1CCN(c2ccccn2)CC1	12.4 µM
COc1ccc(C)cc1Nc1n[n+](-c2ccccc2)c(-c2ccc(OC)c(OC)c2OC)s1	14.5 µM
